Molecules are shown by their SMILES.

The results in this text go back to a melting point compilation (Tetko et al.).

A word on the melting point: it is the temperature of the solid-liquid transition. As for `CC(C)(C)c1ccc2cc(C(=O)O)[nH]c2c1`, the melting point was in the range of 157 to 159 °C.

As to `SCCCNc1ncccn1`, the melting point was in the range of 45 to 47 °C. Then `COc1cc(C)c(C(=O)O)cc1OC`, with 146 to 148 °C. In the case of `CC(Oc1ccc(Cl)cc1[N+](=O)[O-])C(=O)O` (stereo not drawn), the melting point lay within 119 to 121 °C. In the case of `NC(=O)C(N)c1ccc(Br)cc1` (stereo not drawn), the melting point fell in the range of 119 to 121 °C. `O=C(C(=O)N1CCOCC1)N1CCNCC1` had a melting point of 127 to 129 °C. Turning to `O=C(O)c1cc(-c2cccc(F)c2)no1`, the melting point was in the range of 189 to 191 °C.

`Cc1csc(NCC(=O)O)n1`: the melting point was 224 to 226 °C.

`Cc1cccc(-c2nc3cc(Cl)ccc3[nH]2)c1O` displayed a melting point of 249 to 251 °C. Then `NS(=O)(=O)C=Cc1cccc(Br)c1`, with 153 to 155 °C.

Consider `NN1C(=O)NC(c2ccccc2)(c2ccccc2)C1=O`, for which the melting point was 188 to 192 °C. With `CCC(c1ccc(Br)cc1)N1CCNCC1` (stereo not drawn), the melting point is 65 to 67 °C. `NCc1nncn1-c1ccccc1` registered a melting point of 59 to 61 °C. `CCN(CC)S(=O)(=O)c1ccc(O)c([N+](=O)[O-])c1`: the melting point was 82 to 84 °C.

In turn, `O=S(=O)(c1cccc(C(F)(F)F)c1)N1CCNCC1` had a melting point of 100 to 110 °C. Regarding `NS(=O)(=O)c1ccccc1OC(F)F`, the melting point lay within 133 to 135 °C.

The compound `Cc1ccc(NS(=O)(=O)c2ccc(NN)c([N+](=O)[O-])c2)c(C)c1` had a melting point of 215 to 217 °C. `CC(C)CNC(=O)c1cc(Cl)ccc1N` showed a melting point of 137 to 139 °C. Consider `NC(=O)c1csc(C(=O)CCl)c1`, for which the melting point was in the range of 175 to 177 °C. The compound `O=C(O)c1cc(S(=O)(=O)N2CCCCC2)ccc1N1CCCC1` yielded a melting point of 120 to 122 °C.

With `COC(=O)NCC(=O)O`, the melting point lay within 93 to 95 °C. Take `CC(C)(C)c1ccc(CCC(=O)O)cc1`: the melting point was 105 to 107 °C. Next, `CC(C)CC1(C)CC(=O)NC1=O` (stereo not drawn): 81 to 83 °C; `CNC1CCCN(c2ccccc2)C1=O` (stereo not drawn): 76 to 78 °C. `Cc1cc(C)n(CC(=O)NN)n1` showed a melting point of 102 to 104 °C. Then `O=[N+]([O-])c1cccc2c1CCCN2`, with 79 to 81 °C; and `C=CCn1c(S)nc2cc(Cl)ccc2c1=O`, with 139 to 141 °C.

`CCn1c(C)nc2cc(S(=O)(=O)C(F)F)ccc21` displayed a melting point of 161 to 163 °C. As to `Nc1ccccc1SCC(O)c1ccccc1` (stereo not drawn), the melting point was in the range of 61 to 63 °C. `N#Cc1cc(Cl)nc2ccccc12` yielded a melting point of 153 to 155 °C. In turn, `O=C(NC(CO)C(=O)O)c1cccc(Br)c1` (stereo not drawn) displayed a melting point of 140 to 142 °C. As to `COc1cc(N2CC(C(=O)O)CC2=O)cc(OC)c1OC` (stereo not drawn), the melting point was 143 to 145 °C. `O=C1CCC(c2ccccc2)CCN1` (stereo not drawn): the melting point lay in the range of 194 to 196 °C. `Nc1ccc(S(=O)(=O)Nc2ccc(F)c(Cl)c2)cc1`: the melting point fell in the range of 173 to 175 °C. `COC(=O)c1ccc(C=O)[nH]1` gave a melting point of 99 to 101 °C. Take `COc1ccc2nc(Cl)ccc2c1`: the melting point lay in the range of 103 to 105 °C. Regarding `O=C(CCCl)Nc1ccc2[nH]c(=O)[nH]c2c1`, the melting point lay in the range of 299 to 301 °C.

In turn, `CC(=NO)c1ccc(OCC(F)(F)F)cc1` came in with a melting point of 127 to 129 °C. With `CN1CCC(Nc2ccc3cn[nH]c3c2)CC1`, the melting point was in the range of 165 to 167 °C. The compound `NS(=O)(=O)Cc1cccc2cccnc12` registered a melting point of 154 to 156 °C. `O=C(O)C1=CCCSC1` registered a melting point of 103 to 105 °C. In the case of `NCc1ccccc1CN1CCN(c2ccccc2)CC1`, the melting point lay in the range of 86 to 88 °C. `CC(C)(C)NC(=O)c1cccc(N)c1`: the melting point was in the range of 124 to 126 °C.

Compound `O=C(O)c1ccc(S(=O)(=O)NCc2cccs2)cc1` gave a melting point of 232 to 234 °C.

`Cc1nnc2ccc(C#N)cn12` registered a melting point of 201 to 203 °C.

As for `Cc1cc(O)nc(-c2ccccn2)n1`, the melting point was 114 to 116 °C. With `N#Cc1ccccc1Oc1ccc(CCl)cc1`, the melting point was 54 to 56 °C. In turn, `O=C1NC(=O)C(=O)C(=O)N1` yielded a melting point of 255 to 257 °C.

Regarding `COc1ccc(NC(=O)CC#N)cc1Cl`, the melting point lay within 110 to 112 °C.

The compound `Nc1nnc(N)s1` returned a melting point of 192 to 194 °C. `Nc1cc(C2CCNCC2)n[nH]1` returned a melting point of 151 to 153 °C.

`CC1CCCN(c2ccccc2O)C1` (stereo not drawn) came in with a melting point of 44 to 46 °C. `Fc1ccc(-n2c(S)nnc2-c2ccncc2)cc1`: the melting point was in the range of 165 to 175 °C. Next, `CC1CCN(c2ccc([N+](=O)[O-])cc2C(=O)O)CC1`: 160 to 162 °C; `Cc1ccc(Oc2ccc(C#N)cc2)cc1`: 69 to 71 °C. As for `O=C1COc2ccc(F)cc21`, the melting point was in the range of 104 to 106 °C. `FC(F)(F)c1ccccc1Nc1nnc(S)s1` showed a melting point of 197 to 199 °C. For the compound `NC(=O)CCCO`, the melting point fell in the range of 42 to 44 °C. `O=C(COc1ccccc1C(=O)O)Nc1ccc(Br)cc1` showed a melting point of 241 to 243 °C.

`O=C(O)CNc1cccc(Cl)c1` showed a melting point of 174 to 176 °C.

For the compound `O=C(O)C1(c2ccc(Br)cc2)CC1`, the melting point fell in the range of 155 to 157 °C. Turning to `Cc1nc(O)ccc1Br`, the melting point lay in the range of 199 to 201 °C. In turn, `O=C(O)c1cn(-c2ccccc2)nc1-c1ccc(Cl)cc1` had a melting point of 246 to 248 °C. Compound `CSC(C(=O)O)C(C)(C)C` (stereo not drawn) yielded a melting point of 83 to 85 °C. Compound `CC(C)C1NC(=O)c2ccccc2NC1=O` (stereo not drawn) returned a melting point of 259 to 261 °C. With `Sc1ncc(-c2ccc(Br)cc2)[nH]1`, the melting point fell in the range of 210 to 212 °C. In turn, `C#CCNC(=O)Nc1cccc(C#N)c1` came in with a melting point of 167 to 169 °C. Next, `CC(C)(C)n1ncc(C(=O)O)c1C(F)(F)F`: 110 to 112 °C. In turn, `COc1ccc(C(=O)O)cc1S(=O)(=O)NC(C)(C)C` had a melting point of 218 to 220 °C. Then `NNc1nccc(N2CCOCC2)n1`, with 146 to 148 °C; and `COc1ccccc1OCc1ccc(C(=O)O)o1`, with 183 to 185 °C. Next, `OCc1ncc[nH]1`: 99 to 101 °C.

In the case of `O=C1NCCCC1C(F)(F)F` (stereo not drawn), the melting point lay in the range of 99 to 101 °C.

As for `Cc1occc1-c1cc(N)n(CCO)n1`, the melting point was in the range of 128 to 130 °C. `O=C(CCl)NCC(=O)N1CCCC1` gave a melting point of 125 to 127 °C. Next, `CC(=O)c1cc(S(N)(=O)=O)ccc1C`: 124 to 126 °C; `CCOC(=O)C(=O)c1nccn1C`: 52 to 54 °C. Compound `O=C(CCl)N(Cc1ccc(F)cc1)C1CCCCC1` registered a melting point of 73 to 75 °C. Then `Cc1oc(C(=O)O)cc1C(=O)CCl`, with 206 to 208 °C. In turn, `COc1ccc(C(CC(=O)O)NC(C)=O)cc1` (stereo not drawn) returned a melting point of 186 to 188 °C. Compound `CCC(C)C(NC(=O)c1ccccc1)C(=O)O` (stereo not drawn) showed a melting point of 117 to 119 °C. Compound `Cn1ncc2c(=O)n(CCC(=O)O)cnc21` came in with a melting point of 212 to 214 °C. `Cc1ccc(CCC(=O)O)o1` came in with a melting point of 58 to 60 °C. In turn, `CCc1n[nH]c(N)c1Br` registered a melting point of 117 to 119 °C. As to `Nc1c(F)cccc1S(N)(=O)=O`, the melting point lay in the range of 136 to 138 °C. `COC(=O)NC(Cc1ccccc1)C(=O)O` (stereo not drawn) gave a melting point of 75 to 77 °C. Next, `O=C(Nc1ccccn1)C1CCCNC1` (stereo not drawn): 94 to 96 °C. In turn, `CCOC(=O)C(C)=NNc1ccc(Br)cc1CC` gave a melting point of 68 to 70 °C.
